The target in series [1] is HDAC5 (Homo sapiens (Human), UniProt Q9UQL6). The settings on record: Table 1, literature data; read-out: Inhibitory Potency (IC50) HDAC 5; cited from earlier work.
Series [2] addresses HDAC4 (Homo sapiens (Human), UniProt P56524). Particulars: Table 1, literature data; read-out: Inhibitory Potency (IC50) HDAC 4; cited from earlier work.
For series [3], the target named is HDAC9 (Homo sapiens (Human), UniProt Q9UKV0). The settings on record: Table 1, literature data; read-out: Inhibitory Potency (IC50) HDAC 9; cited from earlier work.
Series [4] addresses HDAC7 (Homo sapiens (Human), UniProt Q8WUI4). The settings on record: Table 1, literature data; read-out: Inhibitory Potency (IC50) HDAC 7; cited from earlier work.
Series [5] deals with HDAC10 (Homo sapiens (Human), UniProt Q969S8). Particulars: Table 1, literature data; read-out: Inhibitory Potency (IC50) HDAC 10; cited from earlier work.
Series [6] deals with T1, HDAC8 (Homo sapiens (Human), UniProt Q9BY41). The settings on record: Table 1, literature data; read-out: Inhibitory Potency (IC50) HDAC 8; cited from earlier work.
Series [7] deals with T2, HDAC2 (Homo sapiens (Human), UniProt Q92769). The experiment in a line: HDAC2 in vitro inhibition, dose response. The series is classed as biochemical. The settings on record: Table 2; read-out: HDAC 2 IC50.
Series [8] relates to HepG2 cells.
The target in series [9] is T3, HDAC3 (Homo sapiens (Human), UniProt O15379). The experiment in a line: HDAC3 in vitro inhibition, dose response. The series is classed as biochemical. Particulars: Table 2; read-out: HDAC 3 IC50.
Series [10] has as its target T4, HDAC1 (Homo sapiens (Human), UniProt Q13547). Kind of series: HDAC1 in vitro inhibition, dose response. Format: biochemical. Particulars: Table 2; read-out: HDAC 1 IC50.
For series [11], the system named is HCT116 cells. Kind of series: Histone acetylation by Western blotting. Format: cell-based.
The subject of series [12] is HepG2 cells. The experiment in a line: cells. Particulars: Homo sapiens.
The target in series [13] is T1, HDAC8. The experiment in a line: HDAC8 in vitro inhibition, dose response. Format: biochemical. The settings on record: Table 2; read-out: HDAC 8 IC50.
Series [14] has as its target HDAC6 (Homo sapiens (Human), UniProt Q9UBN7). The experiment in a line: HDAC6 in vitro inhibition, dose response. Format: biochemical. Particulars: Table 2; read-out: HDAC 6 IC50.
The conditions of series [15]: 4b, 50 mg/kg dosed orally, ref (4); cited from earlier work.
Series [16] relates to MDA-MB-231 cells. Kind of series: Cancer cell viability (CellTiter-Glo). The series is classed as cell-based. Particulars: for pIC50: Homo sapiens, MDA-MB-231, read-out: Cancer cell (MDA-MB-231) killing IC50.
For series [17], the target named is T2, HDAC2. Kind of series: HDAC-2 inhibition potency, luminescence readout. Format: biochemical. Particulars: Table 6, luminescence readout. The source says: (§1) Compounds were examined for their HDAC inhibitory activity and their effect on cancer cell viability (MDA-MB-231 cells).
The target of series [18] is T3, HDAC3. Kind of series: HDAC-3 inhibition potency, luminescence readout. The series is classed as biochemical. The settings on record: Table 6, luminescence readout.
The target of series [19] is T4, HDAC1. Kind of series: HDAC-1 inhibition potency, luminescence readout. Particulars: Table 6, luminescence readout. Format: biochemical.
Excerpt: as §1

For series [20] the following is noted: rat, ref (6); cited from earlier work.
In series [21] the test system is HCT116 cells. Kind of series: H3K18ac after 6 h pulse treatment and drug washout. Format: cell-based. The settings on record: for time at which histone acetylation (H3K18ac) was induced: HCT116, 6 h pulse exposure; for time up to which induced acetylation was maintained: HCT116, 6 h pulse then drug washout, time after drug addition.
Series [22] is described as follows: in vivo. The settings on record: rat.
Series [23] deals with T4, HDAC1. The experiment in a line: In vitro HDAC1 inhibition of HTS hits (HDAC I/II-Glo reagents). Format: biochemical. The settings on record: HTS follow-up.
In series [24] the test system is Ad-MLP-Luc reporter in HCT116 cell line. Kind of series: Ad-MLP-Luc luciferase reporter activation. Format: cell-based. Particulars: HCT116, dose-dependent.
Series [25] concerns the target T4, HDAC1. The settings on record: Table 1, literature data; read-out: Inhibitory Potency (IC50) HDAC 1; cited from earlier work.

The structures appear in SMILES notation. pIC50: −log10 of the molar value. Read-outs that look alike come from different tables or passages of the source.

T3 sequence (O15379 whole entry): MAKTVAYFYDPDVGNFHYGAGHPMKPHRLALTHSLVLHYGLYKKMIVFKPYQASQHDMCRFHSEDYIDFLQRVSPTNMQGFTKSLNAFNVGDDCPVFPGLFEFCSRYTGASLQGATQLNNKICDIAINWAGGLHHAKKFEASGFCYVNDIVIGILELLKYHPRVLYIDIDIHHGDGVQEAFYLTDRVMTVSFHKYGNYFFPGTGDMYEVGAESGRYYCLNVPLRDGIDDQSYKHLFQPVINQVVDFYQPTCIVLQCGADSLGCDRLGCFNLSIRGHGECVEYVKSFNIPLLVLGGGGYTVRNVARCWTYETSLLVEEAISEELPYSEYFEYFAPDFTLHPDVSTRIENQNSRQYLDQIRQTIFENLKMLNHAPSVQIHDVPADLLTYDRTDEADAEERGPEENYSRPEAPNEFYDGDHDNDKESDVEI
T3 sequence (Q9Y618 395-489 partner): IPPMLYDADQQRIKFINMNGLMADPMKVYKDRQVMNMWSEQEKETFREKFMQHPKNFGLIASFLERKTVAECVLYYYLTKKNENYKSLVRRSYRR
T1 sequence (Q9BY41 whole entry): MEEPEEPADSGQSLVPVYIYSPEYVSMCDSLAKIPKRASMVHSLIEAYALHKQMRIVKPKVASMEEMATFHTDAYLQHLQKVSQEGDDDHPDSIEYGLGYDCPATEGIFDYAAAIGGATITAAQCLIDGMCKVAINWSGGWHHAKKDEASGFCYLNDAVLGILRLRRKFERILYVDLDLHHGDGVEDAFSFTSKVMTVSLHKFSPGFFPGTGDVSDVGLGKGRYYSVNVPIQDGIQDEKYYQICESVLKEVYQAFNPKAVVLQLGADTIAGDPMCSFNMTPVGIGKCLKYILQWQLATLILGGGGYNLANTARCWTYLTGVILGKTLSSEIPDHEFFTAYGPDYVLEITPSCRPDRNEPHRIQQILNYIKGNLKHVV
T4 sequence (Q13547 whole entry): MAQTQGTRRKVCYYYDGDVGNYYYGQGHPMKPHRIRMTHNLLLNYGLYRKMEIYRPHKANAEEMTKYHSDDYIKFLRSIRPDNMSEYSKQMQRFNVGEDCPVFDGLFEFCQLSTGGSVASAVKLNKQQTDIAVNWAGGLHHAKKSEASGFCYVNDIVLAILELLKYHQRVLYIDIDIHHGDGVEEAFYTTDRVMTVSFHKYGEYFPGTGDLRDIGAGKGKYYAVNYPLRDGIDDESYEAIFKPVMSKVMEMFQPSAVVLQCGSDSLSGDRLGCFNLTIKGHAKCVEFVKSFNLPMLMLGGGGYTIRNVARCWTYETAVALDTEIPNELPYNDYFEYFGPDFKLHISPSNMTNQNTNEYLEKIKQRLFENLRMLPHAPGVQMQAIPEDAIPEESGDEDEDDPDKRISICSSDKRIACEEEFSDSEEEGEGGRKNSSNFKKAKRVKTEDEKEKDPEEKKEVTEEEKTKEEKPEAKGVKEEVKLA
T2 sequence (Q92769 whole entry): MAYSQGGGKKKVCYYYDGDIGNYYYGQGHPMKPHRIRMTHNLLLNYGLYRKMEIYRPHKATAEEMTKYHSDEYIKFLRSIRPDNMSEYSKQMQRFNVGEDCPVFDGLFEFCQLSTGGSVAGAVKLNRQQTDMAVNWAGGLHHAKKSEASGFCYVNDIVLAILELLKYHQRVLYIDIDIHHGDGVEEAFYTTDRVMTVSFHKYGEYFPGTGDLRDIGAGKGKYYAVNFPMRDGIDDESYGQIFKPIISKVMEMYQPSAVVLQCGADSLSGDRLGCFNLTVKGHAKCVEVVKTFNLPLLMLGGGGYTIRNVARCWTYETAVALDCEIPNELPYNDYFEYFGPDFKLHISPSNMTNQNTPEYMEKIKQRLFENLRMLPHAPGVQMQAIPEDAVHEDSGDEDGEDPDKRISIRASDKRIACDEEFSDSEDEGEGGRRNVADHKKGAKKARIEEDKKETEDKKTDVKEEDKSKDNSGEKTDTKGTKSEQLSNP
HDAC6, sequence (Q9UBN7 whole entry): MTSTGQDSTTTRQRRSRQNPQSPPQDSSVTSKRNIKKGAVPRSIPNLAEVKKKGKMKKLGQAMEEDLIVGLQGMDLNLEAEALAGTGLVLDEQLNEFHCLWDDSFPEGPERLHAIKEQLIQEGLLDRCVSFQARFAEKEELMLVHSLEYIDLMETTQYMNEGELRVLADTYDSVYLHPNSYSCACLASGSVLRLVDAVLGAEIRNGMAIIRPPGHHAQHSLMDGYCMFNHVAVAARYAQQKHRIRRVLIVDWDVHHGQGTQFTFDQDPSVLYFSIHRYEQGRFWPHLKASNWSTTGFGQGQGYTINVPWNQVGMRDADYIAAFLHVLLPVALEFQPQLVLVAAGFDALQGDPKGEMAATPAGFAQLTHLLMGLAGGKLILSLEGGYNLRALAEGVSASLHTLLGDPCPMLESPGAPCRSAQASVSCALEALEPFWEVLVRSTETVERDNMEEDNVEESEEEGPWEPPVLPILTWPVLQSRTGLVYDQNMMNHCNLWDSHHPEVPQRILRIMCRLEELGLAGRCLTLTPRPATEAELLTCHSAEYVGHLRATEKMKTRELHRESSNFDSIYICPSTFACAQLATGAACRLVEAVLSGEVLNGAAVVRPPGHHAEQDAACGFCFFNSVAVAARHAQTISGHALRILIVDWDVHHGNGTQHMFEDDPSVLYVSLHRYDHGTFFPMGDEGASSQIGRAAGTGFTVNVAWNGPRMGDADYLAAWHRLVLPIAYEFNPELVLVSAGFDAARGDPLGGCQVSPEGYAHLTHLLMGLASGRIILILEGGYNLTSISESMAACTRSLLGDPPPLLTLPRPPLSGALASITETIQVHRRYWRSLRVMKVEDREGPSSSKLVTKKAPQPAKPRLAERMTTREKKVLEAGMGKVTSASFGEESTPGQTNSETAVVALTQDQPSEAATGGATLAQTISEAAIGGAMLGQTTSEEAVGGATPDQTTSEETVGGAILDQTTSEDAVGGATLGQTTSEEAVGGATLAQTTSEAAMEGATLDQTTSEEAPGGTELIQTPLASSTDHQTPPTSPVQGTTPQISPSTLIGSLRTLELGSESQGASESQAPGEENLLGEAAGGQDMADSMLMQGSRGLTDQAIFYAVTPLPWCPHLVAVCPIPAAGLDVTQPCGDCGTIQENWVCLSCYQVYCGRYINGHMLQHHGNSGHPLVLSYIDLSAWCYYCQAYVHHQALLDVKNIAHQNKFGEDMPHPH
HDAC4, sequence (P56524 whole entry): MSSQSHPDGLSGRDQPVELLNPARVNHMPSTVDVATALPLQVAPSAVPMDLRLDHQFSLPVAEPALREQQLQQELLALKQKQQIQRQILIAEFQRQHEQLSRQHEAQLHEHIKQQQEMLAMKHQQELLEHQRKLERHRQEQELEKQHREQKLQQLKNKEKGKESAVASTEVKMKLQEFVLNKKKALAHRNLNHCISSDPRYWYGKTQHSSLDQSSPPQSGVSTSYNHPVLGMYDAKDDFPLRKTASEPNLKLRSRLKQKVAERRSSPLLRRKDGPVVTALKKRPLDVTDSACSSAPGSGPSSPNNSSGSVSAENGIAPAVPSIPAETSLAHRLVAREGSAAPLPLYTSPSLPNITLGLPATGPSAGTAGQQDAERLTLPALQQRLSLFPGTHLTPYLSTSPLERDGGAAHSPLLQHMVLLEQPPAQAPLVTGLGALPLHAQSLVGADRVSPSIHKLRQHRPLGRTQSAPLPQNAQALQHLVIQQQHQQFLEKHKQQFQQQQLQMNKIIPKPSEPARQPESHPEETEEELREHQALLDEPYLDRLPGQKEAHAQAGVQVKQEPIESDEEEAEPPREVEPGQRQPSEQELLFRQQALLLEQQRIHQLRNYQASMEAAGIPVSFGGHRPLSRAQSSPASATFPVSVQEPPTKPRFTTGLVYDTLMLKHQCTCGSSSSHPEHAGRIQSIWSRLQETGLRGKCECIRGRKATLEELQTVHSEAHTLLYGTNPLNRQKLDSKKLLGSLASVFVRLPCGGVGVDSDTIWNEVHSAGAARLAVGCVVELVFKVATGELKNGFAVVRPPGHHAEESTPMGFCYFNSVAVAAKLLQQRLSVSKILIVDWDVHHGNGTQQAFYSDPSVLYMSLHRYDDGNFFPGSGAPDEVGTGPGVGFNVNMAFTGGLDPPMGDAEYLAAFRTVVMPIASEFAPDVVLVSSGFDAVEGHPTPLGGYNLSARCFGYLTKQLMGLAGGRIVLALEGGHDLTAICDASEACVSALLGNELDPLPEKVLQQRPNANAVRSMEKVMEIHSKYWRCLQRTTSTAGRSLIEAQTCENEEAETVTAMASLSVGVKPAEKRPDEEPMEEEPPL
HDAC10, sequence (Q969S8 whole entry): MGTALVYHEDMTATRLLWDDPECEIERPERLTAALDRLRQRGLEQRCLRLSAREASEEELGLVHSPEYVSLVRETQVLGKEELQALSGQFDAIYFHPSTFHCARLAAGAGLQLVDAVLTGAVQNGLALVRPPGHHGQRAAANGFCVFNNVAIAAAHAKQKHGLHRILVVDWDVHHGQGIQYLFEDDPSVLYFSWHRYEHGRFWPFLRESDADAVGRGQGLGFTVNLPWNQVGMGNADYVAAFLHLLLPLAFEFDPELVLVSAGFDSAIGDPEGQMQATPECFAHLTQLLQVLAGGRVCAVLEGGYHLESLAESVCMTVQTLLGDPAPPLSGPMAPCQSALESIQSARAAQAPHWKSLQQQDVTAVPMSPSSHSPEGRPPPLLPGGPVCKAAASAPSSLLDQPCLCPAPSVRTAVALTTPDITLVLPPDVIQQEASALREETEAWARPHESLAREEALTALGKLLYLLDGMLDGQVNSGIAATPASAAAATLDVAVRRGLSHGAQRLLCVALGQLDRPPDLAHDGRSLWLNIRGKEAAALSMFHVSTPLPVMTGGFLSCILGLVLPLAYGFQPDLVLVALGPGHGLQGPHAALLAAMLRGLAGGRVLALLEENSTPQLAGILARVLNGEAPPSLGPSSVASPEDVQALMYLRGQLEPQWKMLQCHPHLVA

On to `CC(=O)Nc1ccc(C(=O)Nc2cc(-c3cccs3)ccc2N)cc1` [Cpd60], for which the negative-log IC50 (pIC50) in series [1] is < 4.52; in series [2], < 4.52; in series [3], < 4.52; in series [4], < 4.52; in series [5] it was 5.47; in series [6] it was < 4.52.

Turning to `CCCCNNC(=O)c1ccccc1` [RLS2-125, N′-butylbenzohydrazide], the pIC50 in [7], in [9] and in series [10] was < 4.30 in each case. The “growth inhibition for HepG2” value in [8] (HepG2, 96 h) is listed as “little to no growth inhibition”.

As for `CCCCNNC(=O)c1ccc(N(C)C)cc1` [RLS2-131, N′-butyl-4-(dimethylamino)benzohydrazide], in series [11] (HCT116, 0.5 μM, 24 h (FIG. 1B)), the “inhibition of cellular HDACs (H4K5ac, H3K18ac)” value is listed as “potent inhibition of cellular HDACs”. The pIC50 in series [7] is 6.06; in [12] (HepG2, read-out: IC50 Control) it was 5.82; in series [12] (HepG2, read-out: IC50 HDAC1 shRNA) it was 5.74; in [12] (HepG2, read-out: IC50 HDAC2 shRNA), 5.70; in [12] (HepG2, read-out: IC50 HDAC3 shRNA) it was 6.70; in series [9] it was 6.92. Also, the pIC50 in series [13] is 4.88; in [10], 6.64; in series [14], < 4.30. Moreover, the “potency against HepG2 relative to UF010” value in series [8] (HepG2) is listed as 3 fold.

For the molecule `Nc1ccccc1NC(=O)CCCCCC(=O)Nc1ccccc1` [Compound 4b], in series [15], the AUC is 1080 nM·h, the Cmax was 1130 nM, the T1/2 is 2.76 h and the Tmax was 15 min.

In the case of `CCCCNNC(=O)c1ccc(-c2cccc(F)c2F)cc1` [SR-4370, N′-butyl-2′,3′-difluorobiphenyl-4-carbohydrazide], the pIC50 is 4.90 in series [16]; 6.24 in series [7]; 6.24 in series [17]; 8.22 in [18]; 8.22 in series [9]; 6.89 in series [19]. Also, the pIC50 in series [13] is 5.64; in series [10], 6.89; in series [14] it was 5.43.

Take `Nc1ccccc1NC(=O)c1ccc(CNC(=O)OCc2cccnc2)cc1` [MS-275, entinostat]: in series [20], the MTD is recorded as 3.1 mg/kg. The “accumulation of acetylated histones” value in [11] (HCT116, 1 h exposure, TSA 0.2 μM, others 2 μM (FIG. 1A)) was “only slightly induced acetylation at several sites but failed to induce acetylation at most sites”. For the same molecule, in series [21], the “time at which histone acetylation (H3K18ac) was induced” value amounted to 18 h and the “time up to which induced acetylation was maintained” value is “at least 48 h”. In addition, the MTD in [22] is ~1.5 mg/kg.

Regarding `O=C(CCCCCCC(=O)Nc1ccccc1)NO` [SAHA, vorinostat, reference compound], the “potency of HDAC1 inhibition in vitro” value in series [23] was < 10 µM.

Take `CCCCNNC(=O)c1ccccc1-c1ccccc1` [SR-3459]: the pIC50 in series [16] is < 4.00. In series [16] (MDA-MB-231), the “effect on cancer cell viability” value is “does not impair cancer cell viability”. Further, the “HDAC inhibition potency (IC50) HDAC2” value in series [17] is “No inhibition”. Also, in series [18], the “HDAC inhibition potency (IC50) HDAC3” value is “No inhibition”. In addition, the “HDAC inhibition potency (IC50) HDAC1” value in [19] is listed as “No inhibition”.

Consider `CCCCNNC(=O)c1ccc(-c2ccccc2)cc1` [SR-3558], for which the pIC50 in [16] was 4.91; in [17], 6.10; in series [19], 7.05.

Regarding `C/C=C1\NC(=O)[C@H]2CSSCC/C=C/[C@H](CC(=O)N[C@H](C(C)C)C(=O)N2)OC(=O)[C@H](C(C)C)NC1=O` [Romidepsin, romidepsin], the pIC50 in series [2] was 7.52. The Ad-MLP-Luc reporter activity entry in [24] is “dramatically increased”. Besides, in [21], the “time at which histone acetylation (H3K18ac) was induced” value was “quickly induced acetylation” and the “time up to which induced acetylation was maintained” value was “up to 24 h”. In addition, the negative logarithm of the IC50 (pIC50) in series [25] is 8.70.

The values are drawn from US10807944B2, “HDAC inhibitor compounds and methods of treatment” (priority 2014, dated 2020).
